What all share (assay): pIC50, kinobeads binding competition
One assay deals with T1, UniProt O95382.
T1 sequence (whole entry): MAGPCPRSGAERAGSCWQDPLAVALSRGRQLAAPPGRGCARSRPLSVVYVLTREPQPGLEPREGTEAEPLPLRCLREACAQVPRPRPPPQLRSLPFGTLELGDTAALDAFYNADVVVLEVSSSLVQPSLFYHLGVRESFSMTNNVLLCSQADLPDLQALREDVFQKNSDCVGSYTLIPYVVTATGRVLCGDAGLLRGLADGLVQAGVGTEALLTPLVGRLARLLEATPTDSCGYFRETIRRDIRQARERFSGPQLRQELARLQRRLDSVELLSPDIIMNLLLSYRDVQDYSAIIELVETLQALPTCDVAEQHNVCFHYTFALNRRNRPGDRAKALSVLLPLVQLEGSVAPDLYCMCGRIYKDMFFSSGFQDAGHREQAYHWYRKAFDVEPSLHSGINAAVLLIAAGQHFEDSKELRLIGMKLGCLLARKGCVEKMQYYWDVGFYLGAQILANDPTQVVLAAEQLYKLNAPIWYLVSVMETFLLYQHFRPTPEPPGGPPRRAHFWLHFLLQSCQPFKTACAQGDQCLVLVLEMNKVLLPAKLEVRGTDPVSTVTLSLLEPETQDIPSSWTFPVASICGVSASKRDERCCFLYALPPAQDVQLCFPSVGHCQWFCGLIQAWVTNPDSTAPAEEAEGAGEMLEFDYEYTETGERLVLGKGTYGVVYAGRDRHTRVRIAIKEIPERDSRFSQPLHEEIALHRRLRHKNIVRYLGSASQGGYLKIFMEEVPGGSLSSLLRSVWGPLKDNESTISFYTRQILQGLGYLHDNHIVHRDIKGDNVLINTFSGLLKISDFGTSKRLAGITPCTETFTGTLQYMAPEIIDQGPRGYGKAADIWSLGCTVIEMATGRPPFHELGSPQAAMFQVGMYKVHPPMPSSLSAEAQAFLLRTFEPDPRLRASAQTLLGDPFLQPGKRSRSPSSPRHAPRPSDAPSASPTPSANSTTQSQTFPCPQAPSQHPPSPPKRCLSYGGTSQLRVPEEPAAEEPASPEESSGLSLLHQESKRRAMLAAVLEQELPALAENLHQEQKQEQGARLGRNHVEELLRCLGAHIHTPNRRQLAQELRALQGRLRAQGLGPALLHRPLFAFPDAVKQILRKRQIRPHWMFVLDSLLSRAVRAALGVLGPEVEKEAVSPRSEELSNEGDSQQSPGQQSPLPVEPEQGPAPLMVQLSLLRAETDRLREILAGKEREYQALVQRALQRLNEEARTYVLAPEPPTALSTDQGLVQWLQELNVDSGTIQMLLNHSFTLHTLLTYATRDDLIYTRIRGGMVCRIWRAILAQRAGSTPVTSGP
The settings on record: cell material: Lysate mix. In a few lines: (§1)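 To obtain pIC50, fold changes versus vehicle were fitted to logistic dose-response curves (R drc package) across biological duplicates. Protein binding to Kinobeads was quantified by TMT10 LC-MS/MS of digested bead-bound proteins. Treatments used nine concentrations with a top of 30 μM, applied to live Jurkat cells in 1:4 steps for 60 min at 37 °C before lysis, or to Jurkat lysate or a 1:1:1:1 HEK293/K-562/HepG2/placenta lysate mix in 1:5 steps for 60 min at 4 °C.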

For the next assay, the target named is T2, UniProt Q8TF76.
T2 sequence (whole entry): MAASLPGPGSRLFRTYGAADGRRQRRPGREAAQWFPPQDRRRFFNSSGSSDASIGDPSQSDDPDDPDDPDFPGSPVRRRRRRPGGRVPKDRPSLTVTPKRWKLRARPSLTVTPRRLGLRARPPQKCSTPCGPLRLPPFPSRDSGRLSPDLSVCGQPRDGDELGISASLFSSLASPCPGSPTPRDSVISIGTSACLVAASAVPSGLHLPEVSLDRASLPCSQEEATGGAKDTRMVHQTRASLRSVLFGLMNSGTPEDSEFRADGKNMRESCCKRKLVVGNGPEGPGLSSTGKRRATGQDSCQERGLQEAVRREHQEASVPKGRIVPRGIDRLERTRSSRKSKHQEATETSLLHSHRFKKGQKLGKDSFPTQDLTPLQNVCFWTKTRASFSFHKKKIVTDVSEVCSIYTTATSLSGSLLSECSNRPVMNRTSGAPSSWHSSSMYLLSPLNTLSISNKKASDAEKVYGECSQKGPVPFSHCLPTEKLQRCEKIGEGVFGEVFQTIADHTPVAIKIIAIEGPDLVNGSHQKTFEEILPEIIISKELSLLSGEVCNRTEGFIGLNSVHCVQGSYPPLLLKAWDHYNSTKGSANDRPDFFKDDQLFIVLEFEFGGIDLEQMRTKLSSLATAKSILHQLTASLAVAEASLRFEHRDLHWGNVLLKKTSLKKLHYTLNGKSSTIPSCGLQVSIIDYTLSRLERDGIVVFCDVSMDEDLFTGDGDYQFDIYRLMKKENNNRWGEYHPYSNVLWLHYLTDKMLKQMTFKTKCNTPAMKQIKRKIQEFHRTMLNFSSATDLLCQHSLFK
In a few lines: as §1

Another assay has as its target T3, UniProt Q8IW41.
T3 sequence (whole entry): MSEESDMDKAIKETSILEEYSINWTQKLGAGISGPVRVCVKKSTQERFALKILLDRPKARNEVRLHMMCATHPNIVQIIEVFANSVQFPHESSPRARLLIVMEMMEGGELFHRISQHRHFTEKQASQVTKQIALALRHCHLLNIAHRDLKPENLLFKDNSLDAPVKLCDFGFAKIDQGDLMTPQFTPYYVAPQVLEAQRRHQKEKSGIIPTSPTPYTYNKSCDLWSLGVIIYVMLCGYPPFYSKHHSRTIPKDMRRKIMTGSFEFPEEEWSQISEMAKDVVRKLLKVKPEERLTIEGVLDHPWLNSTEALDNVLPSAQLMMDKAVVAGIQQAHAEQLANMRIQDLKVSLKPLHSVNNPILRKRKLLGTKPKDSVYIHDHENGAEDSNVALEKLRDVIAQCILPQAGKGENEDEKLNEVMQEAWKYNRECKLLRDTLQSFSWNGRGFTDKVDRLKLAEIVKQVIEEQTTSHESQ
In a few lines:
as §1

The next assay addresses STK35 (UniProt Q8TDR2). In a few lines: as §1
The target in the next assay is CLK1 (UniProt P49759). In a few lines:
as §1

In the next assay the target is HIPK3 (UniProt Q9H422). In a few lines: as §1
A further assay addresses UniProt Q16659. In a few lines: as §1

Sequence of UniProt Q16659 (Q16659 whole entry): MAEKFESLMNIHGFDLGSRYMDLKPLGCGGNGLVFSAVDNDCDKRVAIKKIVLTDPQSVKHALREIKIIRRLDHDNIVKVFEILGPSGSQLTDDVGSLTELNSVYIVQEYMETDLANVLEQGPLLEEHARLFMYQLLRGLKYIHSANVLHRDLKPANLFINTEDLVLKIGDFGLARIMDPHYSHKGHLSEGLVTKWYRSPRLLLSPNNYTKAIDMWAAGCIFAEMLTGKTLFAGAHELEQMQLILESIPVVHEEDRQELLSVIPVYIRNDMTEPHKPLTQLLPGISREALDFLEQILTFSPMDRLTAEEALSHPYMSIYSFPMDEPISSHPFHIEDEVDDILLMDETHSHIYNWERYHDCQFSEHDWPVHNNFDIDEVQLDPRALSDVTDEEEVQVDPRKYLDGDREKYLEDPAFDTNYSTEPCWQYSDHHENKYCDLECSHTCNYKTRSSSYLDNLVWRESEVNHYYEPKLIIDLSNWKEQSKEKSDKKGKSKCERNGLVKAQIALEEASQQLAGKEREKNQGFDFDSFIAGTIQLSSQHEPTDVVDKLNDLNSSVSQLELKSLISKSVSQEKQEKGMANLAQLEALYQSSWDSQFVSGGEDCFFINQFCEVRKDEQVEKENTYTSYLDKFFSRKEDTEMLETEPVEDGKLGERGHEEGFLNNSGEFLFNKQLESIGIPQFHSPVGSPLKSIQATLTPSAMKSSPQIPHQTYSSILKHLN
Sequence of STK35 (Q8TDR2 whole entry): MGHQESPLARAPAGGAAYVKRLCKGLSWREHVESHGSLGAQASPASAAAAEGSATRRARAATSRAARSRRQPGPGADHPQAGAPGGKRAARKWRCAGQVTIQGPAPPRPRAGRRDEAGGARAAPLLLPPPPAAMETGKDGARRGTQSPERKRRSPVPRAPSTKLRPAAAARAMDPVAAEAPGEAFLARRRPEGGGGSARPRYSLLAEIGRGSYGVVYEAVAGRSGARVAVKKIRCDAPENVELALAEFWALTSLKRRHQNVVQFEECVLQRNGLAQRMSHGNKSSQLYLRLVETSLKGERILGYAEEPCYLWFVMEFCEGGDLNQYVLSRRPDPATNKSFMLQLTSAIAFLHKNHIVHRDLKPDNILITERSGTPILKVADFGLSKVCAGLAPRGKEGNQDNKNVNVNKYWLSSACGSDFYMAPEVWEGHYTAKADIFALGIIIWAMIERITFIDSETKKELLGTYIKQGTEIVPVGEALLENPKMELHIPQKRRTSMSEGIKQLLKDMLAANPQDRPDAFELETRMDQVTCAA
Sequence of HIPK3 (Q9H422 whole entry, looked up): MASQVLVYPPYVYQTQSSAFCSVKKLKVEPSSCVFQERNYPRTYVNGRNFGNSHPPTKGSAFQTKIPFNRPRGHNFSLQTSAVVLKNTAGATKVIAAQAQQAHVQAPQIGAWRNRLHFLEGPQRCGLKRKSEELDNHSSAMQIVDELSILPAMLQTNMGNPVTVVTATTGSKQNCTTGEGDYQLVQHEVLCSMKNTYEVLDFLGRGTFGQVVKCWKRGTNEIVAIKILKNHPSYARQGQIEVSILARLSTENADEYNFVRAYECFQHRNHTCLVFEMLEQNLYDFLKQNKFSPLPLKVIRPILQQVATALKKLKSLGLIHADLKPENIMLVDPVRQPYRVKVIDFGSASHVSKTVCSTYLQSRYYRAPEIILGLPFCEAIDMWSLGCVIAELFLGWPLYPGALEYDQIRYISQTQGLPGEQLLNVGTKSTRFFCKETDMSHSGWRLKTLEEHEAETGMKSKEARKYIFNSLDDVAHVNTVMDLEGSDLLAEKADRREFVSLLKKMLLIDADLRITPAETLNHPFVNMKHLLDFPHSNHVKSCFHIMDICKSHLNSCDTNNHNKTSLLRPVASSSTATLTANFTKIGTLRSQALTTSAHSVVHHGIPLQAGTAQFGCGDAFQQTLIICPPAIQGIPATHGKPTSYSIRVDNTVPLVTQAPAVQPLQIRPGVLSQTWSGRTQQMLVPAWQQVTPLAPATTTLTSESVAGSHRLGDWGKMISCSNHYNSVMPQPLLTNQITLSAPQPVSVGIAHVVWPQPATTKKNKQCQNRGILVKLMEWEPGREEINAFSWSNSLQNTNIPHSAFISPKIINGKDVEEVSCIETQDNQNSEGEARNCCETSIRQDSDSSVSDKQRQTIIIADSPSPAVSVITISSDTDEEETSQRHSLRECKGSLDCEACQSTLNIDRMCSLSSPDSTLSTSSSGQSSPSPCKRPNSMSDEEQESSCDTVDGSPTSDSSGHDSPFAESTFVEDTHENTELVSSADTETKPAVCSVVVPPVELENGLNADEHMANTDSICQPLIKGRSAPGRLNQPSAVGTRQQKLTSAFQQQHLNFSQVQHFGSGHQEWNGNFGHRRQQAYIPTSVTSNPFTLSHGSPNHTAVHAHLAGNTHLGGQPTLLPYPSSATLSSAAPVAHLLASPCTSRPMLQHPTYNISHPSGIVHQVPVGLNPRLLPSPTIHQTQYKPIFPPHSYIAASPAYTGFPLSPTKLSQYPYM
Sequence of CLK1 (P49759 whole entry, looked up): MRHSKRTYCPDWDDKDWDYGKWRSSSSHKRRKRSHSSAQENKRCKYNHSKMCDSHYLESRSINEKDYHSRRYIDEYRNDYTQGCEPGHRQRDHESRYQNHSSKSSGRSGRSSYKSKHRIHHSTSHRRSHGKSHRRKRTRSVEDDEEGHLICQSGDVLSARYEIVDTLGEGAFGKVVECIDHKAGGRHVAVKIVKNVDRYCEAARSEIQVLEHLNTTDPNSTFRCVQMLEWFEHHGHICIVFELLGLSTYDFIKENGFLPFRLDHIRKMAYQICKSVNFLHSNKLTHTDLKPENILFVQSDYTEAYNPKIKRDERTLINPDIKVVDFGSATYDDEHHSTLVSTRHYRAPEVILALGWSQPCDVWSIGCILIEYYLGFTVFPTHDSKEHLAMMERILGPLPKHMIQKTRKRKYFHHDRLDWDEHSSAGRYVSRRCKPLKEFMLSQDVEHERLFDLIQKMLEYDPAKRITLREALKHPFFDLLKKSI

On to `C#CCNC(=O)c1cc(Nc2cc(C)[nH]n2)nc(N2CCN(Cc3ccc(S(=O)(=O)F)cc3)CC2)n1`, for which the negative-log IC50 (pIC50) on UniProt O95382 was 4.63; on UniProt Q8TF76 (cell material: Lysate mix), less than 4.52; at UniProt Q8IW41 (cell material: Lysate mix), less than 4.52; on STK35 (cell material: Lysate mix) it was 6.01; on CLK1 (cell material: Lysate mix), less than 4.52; on HIPK3 (cell material: Lysate mix), 4.76. At UniProt Q16659 (cell material: Lysate mix), this compound displayed a pIC50 of less than 4.52.
Turning to `O=C(NCCNC(=O)c1cc(Nc2cc(C3CC3)[nH]n2)nc(N2CCN(Cc3ccc(S(=O)(=O)F)cc3)CC2)n1)OC1CC/C=C/CCC1` (centres undefined), the pIC50 at UniProt O95382, on UniProt Q8TF76 (cell material: Jurkat cells), on UniProt Q8TF76 (cell material: Jurkat lysate), at UniProt Q8TF76 (cell material: Lysate mix), at UniProt Q8IW41 (cell material: Jurkat cells) and at UniProt Q8IW41 (cell material: Jurkat lysate) was less than 4.52 throughout. Moreover, the negative-log IC50 (pIC50) on UniProt Q8IW41 (cell material: Lysate mix) was less than 4.52; at STK35 (cell material: Jurkat cells) it was 6.88; on STK35 (cell material: Jurkat lysate), 5.19; on STK35 (cell material: Lysate mix), 5.2; at CLK1 (cell material: Jurkat lysate) it was less than 4.52; at CLK1 (cell material: Lysate mix), less than 4.52. Further, the pIC50 at HIPK3 (cell material: Jurkat cells) was 5.22; at HIPK3 (cell material: Jurkat lysate), less than 4.52; at HIPK3 (cell material: Lysate mix), less than 4.52; on UniProt Q16659 (cell material: Jurkat cells) it was less than 4.52; on UniProt Q16659 (cell material: Jurkat lysate) it was less than 4.52; at UniProt Q16659 (cell material: Lysate mix), less than 4.52.
For the compound `CCNC(=O)c1cc(Nc2cc(C3CC3)[nH]n2)nc(N2CCN(Cc3ccc(S(=O)(=O)F)cc3)CC2)n1`, the pIC50 at UniProt O95382 is less than 4.52; at UniProt Q8TF76 (cell material: Lysate mix), less than 4.52; at UniProt Q8IW41 (cell material: Lysate mix), less than 4.52; at STK35 (cell material: Lysate mix), 6.58; at CLK1 (cell material: Lysate mix), 5.44; on HIPK3 (cell material: Lysate mix), 5.74. At UniProt Q16659 (cell material: Lysate mix), the negative logarithm of the IC50 (pIC50) was less than 4.52.
Regarding `Cc1cc(Nc2cc(C(=O)NCCNC(=O)OC3CC/C=C/CCC3)nc(N3CCN(Cc4ccc(S(=O)(=O)F)cc4)CC3)n2)n[nH]1` (centres undefined), the pIC50 at UniProt O95382 is less than 4.52; at UniProt Q8TF76 (cell material: Lysate mix), less than 4.52; on UniProt Q8IW41 (cell material: Lysate mix) it was less than 4.52; at STK35 (cell material: Lysate mix) it was 4.91; at CLK1 (cell material: Lysate mix), less than 4.52; on HIPK3 (cell material: Lysate mix), less than 4.52. The compound also gave a negative-log IC50 (pIC50) on UniProt Q16659 (cell material: Lysate mix) of less than 4.52.
As to `CCNC(=O)c1cc(Nc2cc(C)[nH]n2)nc(N2CCN(Cc3ccc(S(=O)(=O)F)cc3)CC2)n1`, the pIC50 is 4.66 at UniProt O95382; less than 4.52 at UniProt Q8TF76 (cell material: Lysate mix); less than 4.52 at UniProt Q8IW41 (cell material: Lysate mix); 6.51 on STK35 (cell material: Lysate mix); less than 4.52 on CLK1 (cell material: Lysate mix); 4.62 on HIPK3 (cell material: Lysate mix). This compound also had a pIC50 at UniProt Q16659 (cell material: Lysate mix) of less than 4.52.
As for `C#CCNC(=O)c1cc(Nc2cc(C3CC3)[nH]n2)nc(N2CCN(Cc3ccc(S(=O)(=O)F)cc3)CC2)n1`, the pIC50 on UniProt O95382 is less than 4.52; on UniProt Q8TF76 (cell material: Jurkat cells) it was 5.26; at UniProt Q8TF76 (cell material: Jurkat lysate), less than 4.52; at UniProt Q8TF76 (cell material: Lysate mix) it was less than 4.52; at UniProt Q8IW41 (cell material: Jurkat lysate) it was less than 4.52; at UniProt Q8IW41 (cell material: Lysate mix) it was less than 4.52. Besides, the pIC50 on STK35 (cell material: Jurkat cells) came out at 6.96; at STK35 (cell material: Jurkat lysate), 6.1; at STK35 (cell material: Lysate mix), 6.96; at CLK1 (cell material: Jurkat cells) it was 6.11; on CLK1 (cell material: Jurkat lysate), 5.38; at CLK1 (cell material: Lysate mix) it was 5.66. Also, the negative-log IC50 (pIC50) on HIPK3 (cell material: Jurkat cells) is 5.92; at HIPK3 (cell material: Jurkat lysate) it was 4.89; at HIPK3 (cell material: Lysate mix), 5.76; on UniProt Q16659 (cell material: Jurkat cells), less than 4.52; at UniProt Q16659 (cell material: Jurkat lysate), less than 4.52; at UniProt Q16659 (cell material: Lysate mix), less than 4.52.

The values above are taken from the supplement of paper PMC12076712.
